Tested on: angiotensine convertase
Assay: Inhibition of circulating angiotensin convertase in the anaesthetised rat (protocol of D.M. Gross et al.), i.v. dosing
Type: in vivo
Conditions: I.V. dose inhibiting 50% of the activity of the angiotensine convertase present in the circulation
Description: Les composés de l'invention ont été soumis à une étude pharmacologique chez le rat anesthésié selon le protocole décrit par D.M. GROSS et coll. [J. Phar- macol. and Exp. Ther. 216, 552-557, 1981 )].
La dose I.V. capable d'inhiber 50% de l'activité de l'angiotensine convertase présente dans la circulation (DE50) a été déterminée.

Row | Structure (SMILES) | DE50
1 | CCC[C@H](N[C@@H](C)C(=O)N1CC2CCCCC2[C@@H]1C(=O)O)C(=O)OCC (stereo partly drawn) [Exemple IV, [N-<(S)-éthoxycarbonyl-1 butyl>-(S)alanyl]-2 (R)-carboxy-1 perhydroisoindole] | >300 mg/kg
2 | CCC[C@H](N[C@@H](C)C(=O)N1Cc2ccccc2[C@@H]1C(=O)O)C(=O)OCC [II, (N-((S)-éthoxycarbonyl-1 butyl)-(S)alanyl]-2 (R)-carboxy-1 isoindoline] | 0,170 mg/kg
3 | CCC[C@H](N[C@@H](C)C(=O)N1CC2CCCCC2[C@H]1C(=O)O)C(=O)OCC (stereo partly drawn) [III, [N-<(S)-éthoxycarbonyl-1 butyl)-(S) alanyl]-2 (S)-carboxy-1 perhydroisoindole, maléate] | 0,020 mg/kg
4 | CCC[C@H](N[C@@H](C)C(=O)N1Cc2ccccc2[C@H]1C(=O)O)C(=O)OCC [Exemple I] | 0,022 mg/kg

From patent EP0129461B1, “Derivatives of isoindoledicarboxylic acids, their preparation and pharmaceutical compositions thereof” (ADIR, priority 1983, dated 1984)
